{"source": "patent US20080181961A1", "about": "“AMORPHOUS OXCARBAZEPINE AND THE PRODUCTION THEREOF” (ISP INVESTMENTS, INC., priority 2007, published 2008)", "assay": "Aqueous release, USP apparatus II (paddles), water with 6% Cremophor EL (sink conditions)", "assay_type": "physicochemical", "settings": "37° C., 100 rpm to 60 minutes then 200 rpm for 15 minutes, 600 mg dose, FIG. 2", "protocol": "Dissolution profiles can be determined using USP apparatus II (paddles) (VK 7010®, Varian Inc.), with a bath temperature of 37° C. and a paddle speed of 100 rpm for 60 minutes, followed by a paddle speed of 200 rpm for an additional 15 minutes.\nThe aqueous release of the spray dried powder was measured using USP apparatus II (paddles) at 37° C. in water with 6% Cremophor EL. The paddle speed was 100 rpm for the first 60 minutes, and then the paddle speed was increased to 200 rpm for an additional 15 minutes. A dose equivalent to 600 mg oxcarbazepine was filled into hard gelatin capsules (Qualicaps, Shionogi). This media creates sink conditions for the tested dose. • 5.\nThe release profile of this spray dried product was measured using the same dissolution method of Example 1, that is, in media that creates sink conditions for the tested dose. • 5.", "data": [{"smiles": "NC(=O)N1c2ccccc2CC(=O)c2ccccc21", "note": "[crystalline oxcarbazepine, 10,11-dihydro-10-oxo-5H-dibenz[b,f]azepine-5-carboxamide]", "values": [{"measurement": "oxcarbazepine release after the first 15 minutes", "result": "remained essentially constant"}]}]}
